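Tested at 5 concentrations; 48 h exposure; 96-well plates; endpoints linearly interpolated, else capped at highest concentration. At the GI50, growth is halved.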 Active and inactive are the calls of the source. Rule as the data show it: active = GI50 up to about 1.1 µM and inactive = higher.
Columns and labels:
Assay in all cases: NCI anticancer screen, dose series, 48 h
[1] = test system: A498
[2] = test system: SK-MEL-5
[3] = test system: MOLT-4
[4] = test system: MDA-MB-435
[5] = test system: OVCAR-3
[6] = test system: M14
[7] = test system: UACC-62
[8] = test system: CCRF-CEM
[9] = test system: UACC-257
[10] = test system: DU-145
[11] = test system: SF-295
[12] = test system: NCI-H522
[13] = test system: LOX IMVI
[14] = test system: RPMI-8226
[15] = test system: SK-OV-3
[16] = test system: UO-31
[17] = test system: SF-539
[18] = test system: Malme-3M
[19] = test system: MDA-N
[20] = test system: KM12

Measured: GI50

CC1c2ccccc2Cn2cc3c(c21)C(=O)c1cccc(OP(=O)(O)OCc2ccccc2)c1C3=O (stereo not given)
inactive: [1] > 100 µM | [2] > 100 µM | [3] > 100 µM | [4] > 100 µM | [5] > 100 µM | [6] > 100 µM | [7] > 100 µM | [8] > 56 µM | [9] > 100 µM | [10] > 100 µM | [11] > 100 µM | [12] > 100 µM | [13] > 100 µM | [14] > 100 µM | [15] > 100 µM | [16] > 78.3 µM | [17] > 100 µM | [18] > 100 µM | [19] > 100 µM | [20] > 100 µM

COc1ccc2nc3cc(Cl)ccc3c(Nc3ccccc3-c3ccccc3Nc3c4ccc(Cl)cc4nc4ccc(OC)cc34)c2c1
inactive: [1] > 56.5 µM | [2] 18.1 µM | [3] 3.13 µM | [4] 8.32 µM | [5] 45.4 µM | [6] 43.6 µM | [7] 27.5 µM | [8] 4.52 µM | [9] 27.5 µM | [10] 69.3 µM | [11] 33 µM | [12] 8.43 µM | [13] 18.2 µM | [14] 8.17 µM | [15] > 75.7 µM | [16] 26.9 µM | [17] 24.2 µM | [18] 35.2 µM | [19] 3.43 µM | [20] 22.7 µM

c1cnc2c(c1)Nc1cnncc1S2
inactive: [1] > 100 µM | [2] > 100 µM | [3] > 100 µM | [4] > 100 µM | [5] > 100 µM | [6] > 100 µM | [7] 77.6 µM | [8] > 100 µM | [9] > 100 µM | [10] > 100 µM | [11] > 100 µM | [12] > 100 µM | [13] > 100 µM | [14] > 100 µM | [15] > 100 µM | [16] 84.1 µM | [17] > 100 µM | [18] > 100 µM | [19] > 100 µM | [20] > 100 µM

O=C(NNCC(F)(F)F)c1ccncc1
inactive: [1] > 100 µM | [2] > 100 µM | [3] > 100 µM | [4] > 100 µM | [5] > 100 µM | [6] > 100 µM | [7] > 100 µM | [8] > 100 µM | [9] > 100 µM | [10] > 100 µM | [11] > 100 µM | [12] > 100 µM | [13] > 100 µM | [14] > 100 µM | [15] > 100 µM | [16] > 100 µM | [17] > 100 µM | [18] > 100 µM | [19] > 100 µM | [20] > 100 µM

CC(C)c1ccc(C(O)(C(=O)O)c2ccc(C(C)C)cc2)cc1
inactive: [1] 57.9 µM | [2] 56.8 µM | [3] 48.8 µM | [4] 95.7 µM | [5] 26.1 µM | [6] 63.5 µM | [7] 44.6 µM | [8] 49.4 µM | [9] > 100 µM | [10] 61.2 µM | [11] 26.7 µM | [12] 34 µM | [13] 68.5 µM | [14] 24.8 µM | [15] 69.7 µM | [16] 35.3 µM | [17] > 100 µM | [18] 78.7 µM | [19] 70 µM | [20] 39.6 µM

O=C1N[C@H]2C(=O)c3c(Br)sc(Br)c3[C@H]2O1
inactive: [1] 18.7 µM | [2] 14 µM | [3] 2.25 µM | [4] 3.89 µM | [5] 3.11 µM | [6] 3.08 µM | [7] 13.6 µM | [8] 1.31 µM | [9] 8.07 µM | [10] 13.2 µM | [11] 18.5 µM | [12] 1.55 µM | [13] 3.08 µM | [14] 4.44 µM | [15] 18.4 µM | [16] 1.86 µM | [17] 17.4 µM | [18] 4.75 µM | [19] 7.01 µM | [20] 19 µM

O=C(O)CCNc1ccccc1C(=O)O
inactive: [1] > 100 µM | [2] > 100 µM | [3] > 100 µM | [4] > 100 µM | [5] > 100 µM | [6] > 100 µM | [7] > 100 µM | [8] > 100 µM | [9] > 100 µM | [10] > 100 µM | [11] > 100 µM | [12] > 100 µM | [13] > 100 µM | [14] > 100 µM | [15] > 100 µM | [16] > 100 µM | [17] > 100 µM | [18] > 100 µM | [19] > 100 µM | [20] > 100 µM

Source: ChEMBL document CHEMBL1201862, “PubChem BioAssay data set” (2004)
